We go through five compounds from ChEMBL document CHEMBL3632475, “Design, Synthesis, and Pharmacological Evaluation of 5,6-Disubstituted Pyridin-2(1H)-one Derivatives as Phosphodiesterase 10A (PDE10A) Antagonists” (J Med Chem, 2015).

The subject of data set [1] is Rattus norvegicus. Nature of the data set: AUC (0 to t) in Sprague Dawley rat assessed as 6-Phenyl-5-[4-(qumolm-2-ylmethoxy)phenyl]pyridm-2(1H)-one at 11.04 mg/kg, po measured up to 8 hrs. The data set is classed as ADME, organism-based. Further details: time < 8 hr, dose 11.04 mg/kg, route oral. Conditions: in vivo.
Data set [2] concerns Rattus norvegicus. Nature of the data set: Tmax in Sprague Dawley rat assessed as 6-Phenyl-5-[4-(qumolm-2-ylmethoxy)phenyl]pyridm-2(1H)-one at 11.04 mg/kg, po measured up to 8 hrs. Conditions: in vivo. The data set is classed as ADME, organism-based.
For data set [3], the system named is Rattus norvegicus. Nature of the data set: Cmax in Sprague Dawley rat assessed as 6-Phenyl-5-[4-(qumolm-2-ylmethoxy)phenyl]pyridm-2(1H)-one at 11.04 mg/kg, po measured up to 8 hrs. Format: ADME, organism-based. The arrangement: dose 11.04 mg/kg, route oral. Conditions: in vivo.
The subject of data set [4] is Rattus norvegicus. Nature of the data set: Cmax in Sprague Dawley rat assessed as 6-(4-Fluorophenyl)-5-[4-quinolin-2-ylmethoxy)phenyl]-pyridine-2(1H)-one at 11.04 mg/kg, po measured up to 8 hrs. Format: ADME, organism-based. Conditions: in vivo. The arrangement: dose 11.04 mg/kg, route oral.
Data set [5] relates to Canis familiaris. Nature of the data set: AUC (0 to 24 hrs) in Beagle dog assessed as 6-(4-Fluorophenyl)-5-[4-quinolin-2-ylmethoxy)phenyl]-pyridine-2(1H)-one at 11.04 mg/kg, po. Format: ADME, organism-based, Canis lupus familiaris. Further details: dose 11.04 mg/kg, time < 24 hr, route oral. Conditions: in vivo.
The subject of data set [6] is Rattus norvegicus. Nature of the data set: AUC (0 to t) in Sprague Dawley rat assessed as 6-(4-Fluorophenyl)-5-[4-quinolin-2-ylmethoxy)phenyl]-pyridine-2(1H)-one at 11.04 mg/kg, po measured after 8hrs. Format: ADME, organism-based. Conditions: in vivo.
In data set [7] the test system is Canis familiaris. Nature of the data set: Cmax in Beagle dog assessed as 6-(4-Fluorophenyl)-5-[4-quinolin-2-ylmethoxy)phenyl]-pyridine-2(1H)-one at 11.04 mg/kg, po. Further details: dose 11.04 mg/kg, route oral. Conditions: in vivo. Format: ADME, organism-based, Canis lupus familiaris.
Data set [8] relates to Canis familiaris. Nature of the data set: Tmax in Beagle dog assessed as 6-(4-Fluorophenyl)-5-[4-quinolin-2-ylmethoxy)phenyl]-pyridine-2(1H)-one at 11.04 mg/kg, po. Format: ADME, organism-based, Canis lupus familiaris. Conditions: in vivo.
In data set [9] the test system is Cynomolgus monkey. Nature of the data set: Tmax in cynomolgus monkey assessed as 6-(4-Fluorophenyl)-5-[4-quinolin-2-ylmethoxy)phenyl]-pyridine-2(1H)-one at 11.04 mg/kg, po. Format: ADME, organism-based, Macaca fascicularis. Conditions: in vivo.
The subject of data set [10] is Rattus norvegicus. Nature of the data set: Tmax in Sprague Dawley rat assessed as 6-(4-Fluorophenyl)-5-[4-quinolin-2-ylmethoxy)phenyl]-pyridine-2(1H)-one at 11.04 mg/kg, po measured after 8hrs. Format: ADME, organism-based. Conditions: in vivo.
Data set [11] relates to Cynomolgus monkey. Nature of the data set: AUC (0 to 24 hrs) in cynomolgus monkey assessed as 6-(4-Fluorophenyl)-5-[4-quinolin-2-ylmethoxy)phenyl]-pyridine-2(1H)-one at […], iv. The data set is classed as ADME, organism-based, Macaca fascicularis. The arrangement: time < 24 hr, dose 1.1 mg/kg, route intravenous. Conditions: in vivo.
The test system of data set [12] is Canis familiaris. Put plainly: AUC (0 to 24 hrs) in Beagle dog assessed as 6-(4-Fluorophenyl)-5-[4-quinolin-2-ylmethoxy)phenyl]-pyridine-2(1H)-one at […], iv. Format: ADME, organism-based, Canis lupus familiaris. Further details: time < 24 hr, dose 1.1 mg/kg, route intravenous. Conditions: in vivo.
Data set [13] relates to Cynomolgus monkey. Nature of the data set: AUC (0 to 24 hrs) in cynomolgus monkey assessed as 6-(4-Fluorophenyl)-5-[4-quinolin-2-ylmethoxy)phenyl]-pyridine-2(1H)-one at 11.04 mg/kg, po. Format: ADME, organism-based, Macaca fascicularis. Further details: time < 24 hr, dose 11.04 mg/kg, route oral. Conditions: in vivo.
Data set [14] has as its system Cynomolgus monkey. Nature of the data set: Cmax in cynomolgus monkey assessed as 6-(4-Fluorophenyl)-5-[4-quinolin-2-ylmethoxy)phenyl]-pyridine-2(1H)-one at 11.04 mg/kg, po. The arrangement: dose 11.04 mg/kg, route oral. Conditions: in vivo. Format: ADME, organism-based, Macaca fascicularis.
The test system of data set [15] is Rattus norvegicus. Put plainly: AUC (0 to 24 hrs) in Sprague Dawley rat assessed as 6-(4-Fluorophenyl)-5-[4-quinolin-2-ylmethoxy)phenyl]-pyridine-2(1H)-one at […], iv. Conditions: in vivo. The data set is classed as ADME, organism-based. The arrangement: dose 1.1 mg/kg, time < 24 hr, route intravenous.
The test system of data set [16] is Rattus norvegicus. Put plainly: AUC (0 to t) in Sprague Dawley rat assessed as 6-(2,4-Difluorophenyl)-5-[4-(quinolin-2-ylmethoxy)phenyl]-pyridin-2(1H)-one at 11.04 mg/kg, po measured up to 8 hrs. The data set is classed as ADME, organism-based. Further details: dose 11.04 mg/kg, time < 8 hr, route oral. Conditions: in vivo.
Data set [17] has as its system Rattus norvegicus. Nature of the data set: Tmax in Sprague Dawley rat assessed as 6-(2,4-Difluorophenyl)-5-[4-(quinolin-2-ylmethoxy)phenyl]-pyridin-2(1H)-one at 11.04 mg/kg, po measured up to 8 hrs. The data set is classed as ADME, organism-based. Conditions: in vivo.
The test system of data set [18] is Rattus norvegicus. Nature of the data set: Cmax in Sprague Dawley rat assessed as 6-(2,4-Difluorophenyl)-5-[4-(quinolin-2-ylmethoxy)phenyl]-pyridin-2(1H)-one at 11.04 mg/kg, po measured up to 8 hrs. Format: ADME, organism-based. Further details: dose 11.04 mg/kg, route oral. Conditions: in vivo.
Data set [19] in a line: Drug level in liver microsomes (unknown origin) treated with 6-(4-Fluorophenyl)-5-[4-quinolin-2-ylmethoxy)phenyl]-pyridine-2(1H)-one incubated for 60 mins measured by LC-MS/MS analysis in presence of UDPGA. The data set is classed as ADME. Background: Liver microsomes are vesicles of endoplasmic reticulum, rich in cytochrome P450 enzymes.
Data set [20] can be described thus: Drug level in intestinal microsomes (unknown origin) treated with 6-(4-Fluorophenyl)-5-[4-quinolin-2-ylmethoxy)phenyl]-pyridine-2(1H)-one incubated for 60 mins measured by LC-MS/MS analysis in presence of UDPGA. Format: ADME, Intestine.

For the compound `CC(=O)Oc1ccc(-c2ccc(OCc3ccc4ccccc4n3)cc2)c(-c2ccccc2)n1`, the AUCt in the data set on Rattus norvegicus [1] worked out at 1497 ng·h/mL. Also, the Tmax (in general, the time from dosing to the highest level) in the data set on Rattus norvegicus [2] came to 1 h. Further, the Cmax (as a rule, the highest concentration seen after dosing) in the data set on Rattus norvegicus [3] turned out to be 372 ng/mL.

As to `CC(=O)Oc1ccc(-c2ccc(OCc3ccc4ccccc4n3)cc2)c(-c2ccc(F)cc2)n1`, the results for the Cmax in the data set with Rattus norvegicus [4], in the data set with Canis familiaris [7] and with Cynomolgus monkey [14] were 372 ng/mL, 49 ng/mL and 38 ng/mL, respectively. Besides, the AUC (as a rule, concentration integrated over time) with Canis familiaris [5] was determined as 555 ng·h/mL; with Cynomolgus monkey [11] it was 1314 ng·h/mL; with Canis familiaris [12], 841 ng·h/mL; with Cynomolgus monkey [13] it was 345 ng·h/mL; in the data set with Rattus norvegicus [15], 492 ng·h/mL. For the same compound, the AUCt with Rattus norvegicus [6] came to 2436 ng·h/mL. For the same compound, the Tmax in the data set with Canis familiaris [8] was found to be 1 h; with Cynomolgus monkey [9] it was 6 h; in the data set with Rattus norvegicus [10] it was 1 h.

In the case of `CC(=O)Oc1ccc(-c2ccc(OCc3ccc4ccccc4n3)cc2)c(-c2ccc(F)cc2F)n1`, in the data set on Rattus norvegicus [16], the AUCt was found to be 1764 ng·h/mL. Further, in the data set on Rattus norvegicus [17], the Tmax came out at 2 h. The Cmax in the data set on Rattus norvegicus [18] is 266 ng/mL.

With `CN(C)C(=O)Oc1ccc(-c2ccc(OCc3ccc4ccccc4n3)cc2)c(-c2ccc(F)cc2)n1`, the Cmax with Rattus norvegicus [4] came to 42 ng/mL. Further, the AUCt with Rattus norvegicus [6] came out at 182 ng·h/mL. Also, the Tmax in the data set with Rattus norvegicus [10] amounted to 1 h.

For `O=C(O)[C@H]1O[C@@H](Oc2ccc(-c3ccc(OCc4ccc5ccccc5n4)cc3)c(-c3ccc(F)cc3)n2)[C@H](O)[C@@H](O)[C@@H]1O`, the Drug metabolism entry in [19] and in data set [20] was “metabolite_detected” throughout.
